Data on 8 compounds can be found in ChEMBL document CHEMBL1275362, “Synthesis of new antifungal peptides selective against Cryptococcus neoformans” (2010).

As a reminder, the MIC is the smallest concentration in the dilution series that meets the test's criterion for growth inhibition. High values mean weaker potency, low ones greater potency. A word on the MIC90: it is an inhibitory concentration at the 90% level, which refers to growth in some studies and to a panel of isolates in others. High values mean weaker potency, low ones greater potency.

Common to all, as to assay type: functional
One test concerns Pichia kudriavzevii. Nature of the test: Antifungal activity against Candida krusei after 48 hrs by broth microdilution method. (In general: Dilution methods test growth across graded concentrations, often in twofold steps.)
The next test has as its system Nakaseomyces glabratus. Nature of the test: Antifungal activity against Candida glabrata after 48 hrs by broth microdilution method.
The test system of test [1] is Cryptococcus neoformans. Nature of the test: Antifungal activity against Cryptococcus neoformans ATCC 52817 after 72 hrs by broth microdilution method. The settings on record: ATCC 52817, 72 h.
The subject of test [2] is Cryptococcus neoformans. Nature of the test: Antifungal activity against Cryptococcus neoformans H99 after 72 hrs by broth microdilution method. The settings on record: H99, 72 h.
Another test relates to Candida tropicalis. Nature of the test: Antifungal activity against Candida tropicalis after 48 hrs by broth microdilution method.
The next test concerns Candida parapsilosis. Nature of the test: Antifungal activity against Candida parapsilosis after 48 hrs by broth microdilution method. The settings on record: Lodderomyces parapsilosis.
Another test relates to Candida albicans. Nature of the test: Antifungal activity against Candida albicans after 48 hrs by broth microdilution method.

≈ marks a conversion by molar mass, not a printed value. Starred links: 1 amine or outer side, 2 acyl side, 3 side chain; linkers in the order of their positions; H or OH if unused. Non-standard residues stand in square brackets, D forms with d. Residues, ends and D or L forms follow the SMILES beside them. X1 = O=C([C@H](CC1=NC=NC1)N[*:1])[*:2]

On to `N=C(N)NCCC[C@H](NC(=O)[C@H](Cc1c[nH]c2ccccc12)NC(=O)[C@H](Cc1c[nH]c2ccccc12)NC(=O)[C@H](CCCNC(=N)N)NC(=O)[C@H](CCCNC(=N)N)NC(=O)[C@H](CC1=NC=NC1)NC(=O)CNC(=O)[C@@H](N)Cc1c[nH]cn1)C(=O)N[C@@H](Cc1ccccc1)C(=O)O` (H-HG[X1]RRWWRF-OH), for which the MIC against Pichia kudriavzevii was 256 µg/mL (≈ 191 µM); against Nakaseomyces glabratus, 256 µg/mL (≈ 191 µM); against Cryptococcus neoformans [1] it was 8 µg/mL (≈ 5.98 µM); against Cryptococcus neoformans [2] it was 8 µg/mL (≈ 5.98 µM); against Candida tropicalis, 256 µg/mL (≈ 191 µM); in the test with Candida parapsilosis, above 512 µg/mL. In the test on Candida albicans, the lowest concentration to inhibit growth (MIC) was 256 µg/mL (≈ 191 µM). Further, the MIC90 with Pichia kudriavzevii is 512 µg/mL (≈ 383 µM); in the test on Nakaseomyces glabratus, above 512 µg/mL; in the test on Cryptococcus neoformans [2] it was 16 µg/mL (≈ 12 µM); in the test on Candida tropicalis, above 512 µg/mL; in the test with Candida parapsilosis it was 512 µg/mL (≈ 383 µM); with Candida albicans, above 512 µg/mL.
As to `N=C(N)NCCC[C@@H]1NC(=O)[C@H](CCCNC(=N)N)NC(=O)[C@H](Cc2c[nH]c3ccccc23)NC(=O)[C@H](Cc2c[nH]c3ccccc23)NC(=O)[C@H](CCCNC(=N)N)NC(=O)[C@H](Cc2ccccc2)NC(=O)[C@H](Cc2c[nH]cn2)NC1=O` (cyclo(FRWWRRH)), the MIC in the test on Pichia kudriavzevii was 32 µg/mL (≈ 28.4 µM); with Nakaseomyces glabratus, 64 µg/mL (≈ 56.9 µM); against Cryptococcus neoformans [1], 8 µg/mL (≈ 7.11 µM); against Cryptococcus neoformans [2] it was 4 µg/mL (≈ 3.55 µM); in the test with Candida tropicalis it was 64 µg/mL (≈ 56.9 µM); against Candida parapsilosis it was 64 µg/mL (≈ 56.9 µM). This compound came in with an MIC against Candida albicans of 64 µg/mL (≈ 56.9 µM). Besides, the MIC90 in the test with Pichia kudriavzevii came out at 64 µg/mL (≈ 56.9 µM); in the test with Nakaseomyces glabratus, 256 µg/mL (≈ 227 µM); against Cryptococcus neoformans [2] it was 8 µg/mL (≈ 7.11 µM); against Candida tropicalis, 256 µg/mL (≈ 227 µM); in the test with Candida parapsilosis it was 128 µg/mL (≈ 114 µM); in the test on Candida albicans it was 256 µg/mL (≈ 227 µM).
In the case of H-HRRWWRF-OH, the MIC in the test on Pichia kudriavzevii came out at 128 µg/mL; against Nakaseomyces glabratus, 128 µg/mL; in the test with Cryptococcus neoformans [1] it was 16 µg/mL; in the test with Cryptococcus neoformans [2], 8 µg/mL; in the test with Candida tropicalis it was 128 µg/mL; in the test with Candida parapsilosis, 128 µg/mL. Besides, in the test on Candida albicans, the MIC came out at 128 µg/mL. The MIC90 against Pichia kudriavzevii turned out to be 256 µg/mL; against Nakaseomyces glabratus, 512 µg/mL; in the test on Cryptococcus neoformans [2] it was 16 µg/mL; against Candida tropicalis it was 512 µg/mL; against Candida parapsilosis it was 256 µg/mL; in the test on Candida albicans, 512 µg/mL.
With `OC(Cn1cncn1)(Cn1cncn1)c1ccc(F)cc1F` [FLUCONAZOLE], the MIC in the test on Pichia kudriavzevii is 16 µg/mL (≈ 52.2 µM); against Nakaseomyces glabratus, 4 µg/mL (≈ 13.1 µM); in the test with Cryptococcus neoformans [2], 2 µg/mL (≈ 6.53 µM); with Candida tropicalis it was 0.5 µg/mL (≈ 1.63 µM); against Candida parapsilosis it was 1 µg/mL (≈ 3.27 µM); in the test with Candida albicans, 0.125 µg/mL (≈ 0.408 µM). The MIC90 turned out to be 64 µg/mL (≈ 209 µM) in the test with Pichia kudriavzevii; 64 µg/mL (≈ 209 µM) against Nakaseomyces glabratus; 4 µg/mL (≈ 13.1 µM) against Cryptococcus neoformans [2]; 2 µg/mL (≈ 6.53 µM) with Candida tropicalis; 2 µg/mL (≈ 6.53 µM) in the test on Candida parapsilosis; 0.25 µg/mL (≈ 0.816 µM) against Candida albicans.
With `N=C(N)NCCC[C@@H]1NC(=O)[C@H](CCCNC(=N)N)NC(=O)[C@H](Cc2ccccc2)NC(=O)[C@H](CCCNC(=N)N)NC(=O)[C@H](Cc2c[nH]c3ccccc23)NC(=O)[C@H](Cc2c[nH]c3ccccc23)NC1=O` (cyclo(RRWWRF)), the MIC against Pichia kudriavzevii worked out at 32 µg/mL (≈ 32.4 µM); in the test on Nakaseomyces glabratus it was 128 µg/mL (≈ 130 µM); against Cryptococcus neoformans [1], 8 µg/mL (≈ 8.1 µM); against Cryptococcus neoformans [2], 4 µg/mL (≈ 4.05 µM); in the test on Candida tropicalis, 128 µg/mL (≈ 130 µM); against Candida parapsilosis, 32 µg/mL (≈ 32.4 µM). In the test on Candida albicans, the MIC is 128 µg/mL (≈ 130 µM). The MIC90 against Pichia kudriavzevii is 512 µg/mL (≈ 518 µM); against Nakaseomyces glabratus, 512 µg/mL (≈ 518 µM); in the test on Cryptococcus neoformans [2] it was 64 µg/mL (≈ 64.8 µM); in the test on Candida tropicalis it was 512 µg/mL (≈ 518 µM); in the test on Candida parapsilosis it was 128 µg/mL (≈ 130 µM); with Candida albicans, 512 µg/mL (≈ 518 µM).
In the case of H-RRWWRF-OH, the MIC came to 128 µg/mL against Pichia kudriavzevii; 128 µg/mL against Nakaseomyces glabratus; 16 µg/mL with Cryptococcus neoformans [1]; 16 µg/mL against Cryptococcus neoformans [2]; 128 µg/mL with Candida tropicalis; 64 µg/mL with Candida parapsilosis. In the test on Candida albicans, this compound had an MIC of 128 µg/mL. Moreover, the MIC90 with Pichia kudriavzevii was 512 µg/mL; against Nakaseomyces glabratus, 512 µg/mL; against Cryptococcus neoformans [2], 64 µg/mL; with Candida tropicalis, 512 µg/mL; against Candida parapsilosis, 128 µg/mL; against Candida albicans, 512 µg/mL.
`N=C(N)NCCC[C@@H]1NC(=O)[C@H](CCCNC(=N)N)NC(=O)[C@H](Cc2c[nH]c3ccccc23)NC(=O)[C@H](Cc2c[nH]c3ccccc23)NC(=O)[C@H](CCCNC(=N)N)NC(=O)[C@H](Cc2ccccc2)NC(=O)[C@H](Cc2c[nH]cn2)NC(=O)CNC(=O)[C@H](Cc2c[nH]cn2)NC1=O` (cyclo(FRWWRRHGH)): the MIC was 32 µg/mL (≈ 24.3 µM) with Pichia kudriavzevii; 64 µg/mL (≈ 48.5 µM) against Nakaseomyces glabratus; 4 µg/mL (≈ 3.03 µM) with Cryptococcus neoformans [1]; 2 µg/mL (≈ 1.52 µM) against Cryptococcus neoformans [2]; 32 µg/mL (≈ 24.3 µM) in the test on Candida tropicalis; 32 µg/mL (≈ 24.3 µM) in the test with Candida parapsilosis. Also, the MIC against Candida albicans was found to be 32 µg/mL (≈ 24.3 µM). The MIC90 against Pichia kudriavzevii came out at 64 µg/mL (≈ 48.5 µM); with Nakaseomyces glabratus, 256 µg/mL (≈ 194 µM); in the test on Cryptococcus neoformans [2] it was 4 µg/mL (≈ 3.03 µM); with Candida tropicalis, 128 µg/mL (≈ 97 µM); against Candida parapsilosis, 128 µg/mL (≈ 97 µM); against Candida albicans, 128 µg/mL (≈ 97 µM).
Turning to `C[C@@H]1[C@H](O)[C@@H](C)/C=C/C=C/C=C/C=C/C=C/C=C/C=C/[C@H](O[C@@H]2O[C@H](C)[C@@H](O)[C@H](N)[C@@H]2O)C[C@@H]2O[C@](O)(C[C@@H](O)C[C@@H](O)[C@H](O)CC[C@@H](O)C[C@@H](O)CC(=O)O[C@H]1C)C[C@H](O)[C@H]2C(=O)O` [AMPHOTERICIN B], the MIC against Pichia kudriavzevii stood at 0.03 µg/mL (≈ 0.0325 µM); against Nakaseomyces glabratus, 0.03 µg/mL (≈ 0.0325 µM); with Cryptococcus neoformans [2], 0.125 µg/mL (≈ 0.135 µM); with Candida tropicalis, 0.03 µg/mL (≈ 0.0325 µM); against Candida parapsilosis, 0.06 µg/mL (≈ 0.0649 µM); in the test with Candida albicans, 0.03 µg/mL (≈ 0.0325 µM). Besides, the MIC90 against Pichia kudriavzevii was determined as 0.06 µg/mL (≈ 0.0649 µM); with Nakaseomyces glabratus it was 0.125 µg/mL (≈ 0.135 µM); in the test on Cryptococcus neoformans [2], 0.25 µg/mL (≈ 0.271 µM); in the test with Candida tropicalis, 0.06 µg/mL (≈ 0.0649 µM); against Candida parapsilosis it was 0.06 µg/mL (≈ 0.0649 µM); against Candida albicans, 0.125 µg/mL (≈ 0.135 µM).
